The source of these data is patent US20060067978A1, “Process for preparing poly(vinyl alcohol) drug delivery devices” (Bausch & Lomb Incorporated, priority 2004, published 2006).

The nature of this data set: thermal decomposition of the medicament at curing temperature. It counts as physicochemical. The settings on record: heat stability considered for curing poly(vinyl alcohol) in the presence of the medicament.

Consider `CC1(C)O[C@@H]2C[C@H]3[C@@H]4C[C@H](F)C5=CC(=O)C=C[C@]5(C)[C@@]4(F)[C@@H](O)C[C@]3(C)[C@]2(C(=O)CO)O1` [flucinolone acetonide], for which the “temperature above which the medicament begins to decompose” value was “about 165 °C”.
